Patent US4816472A, “Derivatives of 19,20-Bis-nor-prostanoic acid with antiulcer and anorectic activity, process for their preparation and pharmaceutical compositions thereof” (Istituto Biochemico Italiano Giovanni Lorenzini S.p.A., priority 1985, dated 1989)

Experiments:
[1] = tested on: NaOH induced ulcers in the rat; experiment: Sodium hydroxide induced ulcers in the rat; format: in vivo
Procedure: (§1) The anitulcer activity of these derivatives was evaluated on ulcers induced by the administration of ethanol, hydrochloric acid and sodium hydroxide in the rat, also on gastric ulcers induced by aspirin in the rat, and on their influence on gastric secretions in the rat.
(3) Sodium hydroxide induced ulcers in the rat:
Also this test is performed in accordance with the method described by A. Robert et al, in Gastroenterology, 77,433 (1979), the disclosure of which is incorporated herein by reference.

[2] = tested on: aspirin-induced ulcers in the rat; experiment: Aspirin induced gastric ulcers in the rat; format: in vivo; conditions: 200 mg/kg of drug
Procedure: as §1
(4) Aspirin induced gastric ulcers in the rat:
For carrying out this test, the method described by H. A. Carmichael, L. M. Nelson, R. I. Russel in Gastroenterology 74, 1229 (1978) is used, the disclosure of which is incorporated herein by reference.

[3] = tested on: gastric secretion in the rat; experiment: Gastric secretion in the rat; format: in vivo, Sprague-Dawley rats
Procedure: as §1
(5) Gastric secretion in the rat:
Sprague-Dawley rats of both sexes are used for this test. The gastric secretion is rated according to the method described by H. Shay et al in Gastroenterology 5,43 (1945) the disclosure of which is incorporated herein by reference.

[4] = tested on: gastric depletion in the rat; experiment: Gastric depletion in the rat; format: in vivo
Procedure: Gastric depletion in the rat.
Rats of both sexes and mean weight of 180-200 g are used. The animals are subjected to fasting for 24 hours but have free access to water up to 3 hours prior to the test.
Preparation of phenyl red solution: 50 mg of phenyl red is mixed with 100 ml of a 1.5% methyl cellulose solution and shaken for 5 hours.
1.5 ml per rat is administered irrespective of weight.
The rats are sacrificed by cervix translocation: the stomach is taken out after ligaturing the cardias and pilorus.
The entire stomach and contents are placed in the container of a homogenizer with 50 ml of 0.1N NaOH. They are homogenized for 2 minutes at a maximum velocity. They homogenate is transferred to a test-tube and left to settle for one hour.
5 ml of the supernatant is taken out and put into a centrifuge tube and mixed with 0.5 ml of 20% (w/v) trichloroacetic acid. The tube is centrifuged at 2500 rpm for 20 min. The entire supernatant is taken and mixed with 4 ml of 0.4N NaOH, and its absorbance is measured at 560λ.
Gastric depletion is calculated according to the following formula:
(1-sample absorbance/standard absorbance)×100
As "standard absorbance" is considered the mean value of spectophotometric measurement of 4 animals sacrificed immediately after administering phenyl red.

Row | Structure (SMILES) | Percent inhibition of aspirin-induced ulcers in the rat [2] | Percent inhibition of gastric secretion in the rat ([3]; 25 mg/kg, 2 h after treatment) | Percent inhibition of gastric secretion in the rat ([3]; 50 mg/kg, 2 h after treatment) | Percent inhibition of gastric secretion in the rat ([3]; 100 mg/kg, 2 h after treatment) | Percent inhibition of gastric secretion in the rat ([3]; 100 mg/kg, 4 h after treatment) | further results
1 | CCCCCCC1CCC(O)C1CCCCCCC(=O)O (stereo not drawn) [drawing 25] | – | – | – | – | – | Percent inhibition of NaOH induced ulcers in the rat ([1]; 50 mg/kg): 53%; Percent inhibition of NaOH induced ulcers in the rat ([1]; 100 mg/kg): 84%; Percent inhibition of NaOH induced ulcers in the rat ([1]; 200 mg/kg): 92%
2 | CCCCCCC1CCC(N)C1CCCCCCC(=O)O (stereo not drawn) [drawing 26] | 72% | – | – | – | – | –
3 | CCCCCCC1CCC(NC)C1CCCCCCC(=O)O (stereo not drawn) [drawing 27] | 87% | – | – | – | – | –
4 | CCCCCCC1CCC(N(C)C)C1CCCCCCC(=O)O (stereo not drawn) [drawing 28] | 88% | – | – | – | – | –
5 | CCCCCCC1CCC(NC(C)C)C1CCCCCCC(=O)O (stereo not drawn) [drawing 29] | 63% | – | – | – | – | –
6 | CCCCCCC1CCC(NC(C)=O)C1CCCCCCC(=O)O (stereo not drawn) [drawing 30] | 58% | – | – | – | – | –
7 | CCCCCCC1CCC(O)C1CCCCCCC(=O)O (stereo not drawn) [drawing 31] | 64% | – | – | – | – | –
8 | CCCCCCC1CCC(N)C1CCCCCCC(=O)O (stereo not drawn) [drawing 32] | – | 87% | 88% | 77% | 89% | Percent inhibition of gastric secretion in the rat ([3]; 12.5 mg/kg, 2 h after treatment): 38%; Percent inhibition of gastric secretion in the rat ([3]; 50 mg/kg, 4 h after treatment): 68%
9 | CCCCCCC1CCC(NC)C1CCCCCCC(=O)O (stereo not drawn) [drawing 33] | – | 0% | 54% | 79% | 66% | Percent inhibition of gastric secretion in the rat ([3]; 25 mg/kg, 4 h after treatment): 40%; Percent inhibition of gastric secretion in the rat ([3]; 50 mg/kg, 4 h after treatment): 49%
10 | CCCCCCC1CCC(N(C)C)C1CCCCCCC(=O)O (stereo not drawn) [drawing 34] | – | 74% | 75% | 82% | 63% | Percent inhibition of gastric secretion in the rat ([3]; 25 mg/kg, 4 h after treatment): 23%; Percent inhibition of gastric secretion in the rat ([3]; 50 mg/kg, 4 h after treatment): 55%
11 | CCCCCCC1CCC(NC(C)C)C1CCCCCCC(=O)O (stereo not drawn) [drawing 35] | – | 35% | 56% | 37% | 54% | Percent inhibition of gastric secretion in the rat ([3]; 25 mg/kg, 4 h after treatment): 0%; Percent inhibition of gastric secretion in the rat ([3]; 50 mg/kg, 4 h after treatment): 46%
12 | CCCCCCC1CCC(NC(C)=O)C1CCCCCCC(=O)O (stereo not drawn) [drawing 36] | – | 51% | 48% | 70% | 59% | Percent inhibition of gastric secretion in the rat ([3]; 25 mg/kg, 4 h after treatment): 0%; Percent inhibition of gastric secretion in the rat ([3]; 50 mg/kg, 4 h after treatment): 12%
13 | CCCCCCC1CCC(O)C1CCCCCCC(=O)O (stereo not drawn) [drawing 37] | – | 0% | 30% | 50% | 45% | Percent inhibition of gastric secretion in the rat ([3]; 25 mg/kg, 4 h after treatment): 15%
14 | CCCCCCC1CCC(N)C1CCCCCCC(=O)O (stereo not drawn) [drawing 38] | – | – | – | – | – | inhibition values of gastric depletion ([4]; 25 mg/kg): 18%; inhibition values of gastric depletion ([4]; 50 mg/kg): 80%; inhibition values of gastric depletion ([4]; 100 mg/kg): 80%
15 | CCCCCCC1CCC(NC)C1CCCCCCC(=O)O (stereo not drawn) [drawing 39] | – | – | – | – | – | inhibition values of gastric depletion ([4]; 50 mg/kg): 33%
16 | CCCCCCC1CCC(N(C)C)C1CCCCCCC(=O)O (stereo not drawn) [drawing 40] | – | – | – | – | – | inhibition values of gastric depletion ([4]; 50 mg/kg): 55%
17 | CCCCCCC1CCC(NC(C)C)C1CCCCCCC(=O)O (stereo not drawn) [drawing 41] | – | – | – | – | – | inhibition values of gastric depletion ([4]; 50 mg/kg): 14%
18 | CCCCCCC1CCC(NC(C)=O)C1CCCCCCC(=O)O (stereo not drawn) [drawing 42] | – | – | – | – | – | inhibition values of gastric depletion ([4]; 50 mg/kg): 78%
